Results reported in patent US8822449B2, “Substituted aminoindanes and analogs thereof, and the pharmaceutical use thereof” (Sanofi, priority 2008, dated 2014).
Read-outs that look alike come from different tables or passages of the source.

Target: T1, sodium-proton exchanger of subtype 3 (NHE3) (Homo sapiens, UniProt P48764)
T1 construct: expressed in transfected cells
T1 sequence (P48764 26-834): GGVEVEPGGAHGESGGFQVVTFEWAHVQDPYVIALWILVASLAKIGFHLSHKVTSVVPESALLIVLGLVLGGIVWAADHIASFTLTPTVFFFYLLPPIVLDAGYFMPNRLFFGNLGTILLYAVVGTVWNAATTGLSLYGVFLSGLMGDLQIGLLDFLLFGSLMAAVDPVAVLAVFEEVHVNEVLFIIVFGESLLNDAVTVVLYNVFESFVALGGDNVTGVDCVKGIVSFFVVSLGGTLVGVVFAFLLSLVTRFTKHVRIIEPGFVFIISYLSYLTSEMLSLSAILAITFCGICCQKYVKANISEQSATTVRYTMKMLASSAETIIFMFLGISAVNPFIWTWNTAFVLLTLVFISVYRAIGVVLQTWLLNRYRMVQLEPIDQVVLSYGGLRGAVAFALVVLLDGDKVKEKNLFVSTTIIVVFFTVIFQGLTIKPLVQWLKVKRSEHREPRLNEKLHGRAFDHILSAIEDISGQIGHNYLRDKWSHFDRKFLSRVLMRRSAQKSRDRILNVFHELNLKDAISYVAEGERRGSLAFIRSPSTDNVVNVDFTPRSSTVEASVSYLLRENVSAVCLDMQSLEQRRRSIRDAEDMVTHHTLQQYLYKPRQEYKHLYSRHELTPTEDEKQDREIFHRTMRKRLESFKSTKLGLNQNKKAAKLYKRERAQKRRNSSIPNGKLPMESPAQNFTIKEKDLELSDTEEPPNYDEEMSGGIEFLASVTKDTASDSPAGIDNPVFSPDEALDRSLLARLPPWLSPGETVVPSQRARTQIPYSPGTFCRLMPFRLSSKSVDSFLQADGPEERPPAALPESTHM
Test: Recovery of intracellular pH (pHi) after acidification in LAP1 cells stably expressing NHE3 (BCECF fluorescence, FLIPR)
Format: cell-based

[1] = LAP1 cells stably expressing NHE3, pH recovery after acidification, range 1 is % inhibition at 10 μM, read-out: Activity range (inhibitory effect on NHE3)

IC50 [1] [nM] | Structure (SMILES) | other results
1000 to 10000 | Cc1nnc(C(C)C)n1-c1ccc(O[C@H]2c3cc(Cl)cc(F)c3C[C@@H]2N2CC[C@@H](O)C2)cc1 [Example 721, (R)-1-{trans-(1S,2S)-6-Chloro-4-fluoro-1-[4-(3-isopropyl-5-methyl-[1,2,4]triazol-4-yl)-phenoxy]-indan-2-yl}-pyrrolidin-3-ol] | –
– | CS(=O)(=O)c1ccc(O[C@H]2c3cc(Cl)cc(Cl)c3C[C@@H]2N2CCN(C3CC3)CC2)cc1 [Example 351, 1-Cyclopropyl-4-[trans-(1S,2S)-4,6-dichloro-1-(4-methanesulfonylphenoxy)indan-2-yl]piperazine] | inhibition at 10 µM [1]: 20 to 50%
< 1000 | CC(=O)Nc1cccc(O[C@H]2c3cc(Cl)cc(Cl)c3C[C@@H]2N2CCNCC2)c1 [Example 665, N-[3-(trans-(1S,2S)-4,6-dichloro-2-piperazin-1-ylindan-1-yloxy)phenyl]acetamide] | –
1000 to 10000 | O=C1CNC(=O)N1c1ccc(F)c(O[C@H]2c3cc(Cl)cc(F)c3C[C@@H]2N2CC[C@@H](O)C2)c1 [Example 421, 3-{3-[(1S,2S)-6-chloro-4-fluoro-2-((R)-3-hydroxypyrrolidin-1-yl)indan-1-yloxy]-4-fluorophenyl}imidazolidine-2,4-dione] | –
– | Cc1nncn1-c1ccc(O[C@H]2c3ccccc3C[C@@H]2N2CCCC2)cc1 (racemic) [Example 453, 3-methyl-4-[4-(rac-trans-(1,2)-2-pyrrolidin-1-ylindan-1-yloxy)phenyl]-4H-[1,2,4]triazole] | IC50 (Activity range (inhibitory effect on NHE3), LAP1 cells stably expressing NHE3, pH recovery after acidification, range 1 is % inhibition at 10 μM): < 1000 nM
< 1000 | CC(=O)Nc1cccc(O[C@H]2c3cc(F)ccc3C[C@@H]2N2CCCC2)c1 (racemic) [Example 661, N-[3-(rac-trans-(1,2)-6-fluoro-2-pyrrolidin-1-ylindan-1-yloxy)phenyl]acetamide] | –
1000 to 10000 | O=C1CCCN1c1ccc(O[C@H]2c3cc(Cl)cc(Cl)c3C[C@@H]2N2CCCC2)cc1 [Example 260, 1-[4-((1S,2S)-4,6-dichloro-2-pyrrolidin-1-ylindan-1-yloxy)phenyl]pyrrolidin-2-one] | –
1000 to 10000 | COCCc1ccc(O[C@@H]2c3ccccc3C[C@H]2N2CCC[C@@H](N)C2)cc1 (racemic) [Example 116, (R)-1-{rac-trans-(1,2)-1-[4-(2-methoxyethyl)phenoxy]indan-2-yl}piperidin-3-ylamine] | –
– | Clc1cnccc1O[C@H]1c2ccccc2C[C@@H]1CN1CCOCC1 (racemic) [Example 486, 4-[1-(3-chloropyridin-4-yloxy)indan-2-ylmethyl]morpholine] | inhibition at 10 µM [1]: 20 to 50%
< 1000 | Cc1nnc(C)n1-c1ccc(O[C@H]2c3ccccc3C[C@@H]2N2CCCC2)c(Cl)c1 (racemic) [Example 490, 4-[3-chloro-4-(rac-trans-(1,2)-2-pyrrolidin-1-ylindan-1-yloxy)phenyl]-3,5-dimethyl-4H-[1,2,4]triazole] | –
1000 to 10000 | CS(=O)(=O)c1ccc(O[C@H]2c3cc(Cl)cc(Cl)c3C[C@@H]2CN2CCCC2)cc1 (racemic) [Example 280, trans-4,6-dichloro-1-(4-methylsulfonyl-phenyloxy)-2-pyrrolidinylmethylindane] | –
1000 to 10000 | Cc1nnc(C)n1-c1ccc(O[C@H]2c3cc(Cl)ccc3C[C@@H]2N2CCS(=O)(=O)CC2)c(Cl)c1 [Example 567, 4-{trans-(1S,2S)-6-chloro-1-[2-chloro-4-(3,5-dimethyl-[1,2,4]triazol-4-yl)phenoxy]indan-2-yl}thiomorpholine 1,1-dioxide] | –
1000 to 10000 | CCN(CC)[C@@H]1Cc2ccccc2[C@H]1Oc1ccc2c(c1)C(C)C(=O)N2C (mixture of isomers) [Example 568, 5-(rac-trans-(1,2)-2-diethylaminoindan-1-yloxy)-1,3-dimethyl-1,3-dihydroindol-2-one] | –
– | CS(=O)(=O)c1ccc(O[C@H]2c3c(Cl)sc(Cl)c3CC[C@@H]2N2CCCC2)cc1 (racemic) [Example 253, 1-[1,3-dichloro-4-(4-methanesulfonylphenoxy)-4,5,6,7-tetrahydrobenzo[c]thiophen-5-yl]pyrrolidine] | inhibition at 10 µM (LAP1, read-out: Activity range (inhibitory effect on NHE3)): 20 to 50%
< 1000 | Cc1c(O[C@H]2c3cc(Cl)cc(Cl)c3C[C@@H]2N2CC[C@@H](O)C2)ccc(-n2c(C)nnc2C)c1C [Example 127, (R)-1-{trans-(1S,2S)-4,6-dichloro-1-[4-(3,5-dimethyl-[1,2,4]triazol-4-yl)-2,3-dimethylphenoxy]indan-2-yl}pyrrolidin-3-ol] | –
< 1000 | Clc1cc(Cl)c2c(c1)[C@H](Oc1ccc(-n3cncn3)cc1)[C@@H](N1CC3CNCC3C1)C2 (mixture of isomers) [Example 377, 2-[rac-trans-(1,2)-4,6-dichloro-1-(4-[1,2,4]triazol-1-ylphenoxy)indan-2-yl]octahydropyrrolo[3,4-c]pyrrole] | –
1000 to 10000 | CC(=O)Nc1cccc(O[C@H]2c3cc(Cl)ccc3C[C@@H]2N2CCNCC2)c1 (racemic) [Example 657, N-[3-(rac-trans-(1,2)-6-chloro-2-piperazin-1-ylindan-1-yloxy)phenyl]acetamide] | –
– | COCCc1ccc(O[C@H]2c3ccccc3CC[C@@H]2N2CCC[C@H](N)C2)cc1 (racemic) [Example 202, (S)-1-{rac-trans-(1,2)-1-[4-(2-methoxyethyl)phenoxy]-1,2,3,4-tetrahydronaphthalen-2-yl}piperidin-3-ylamine] | inhibition at 10 µM [1]: 20 to 50%
1000 to 10000 | N[C@@H]1CCCN([C@H]2CCc3ccccc3[C@@H]2Oc2ccc(-n3cncn3)cc2)C1 (racemic) [Example 61, (R)-1-[rac-trans-(1,2)-1-(4-[1,2,4]triazol-1-ylphenoxy)-1,2,3,4-tetrahydronaphthalen-2-yl]piperidin-3-ylamine] | –
– | CS(=O)(=O)c1ccc(O[C@H]2c3cc(F)ccc3C[C@@H]2N2CCN(CC#N)CC2)cc1 (racemic) [Example 242, {4-[rac-trans-(1,2)-6-fluoro-1-(4-methanesulfonylphenoxy)indan-2-yl]piperazin-1-yl}acetonitrile] | inhibition at 10 µM [1]: 20 to 50%
< 1000 | NS(=O)(=O)c1ccc(O[C@H]2c3cc(Cl)cc(Cl)c3C[C@@H]2N2CCS(=O)(=O)CC2)cc1 [Example 483, 4-[(1S,2S)-4,6-dichloro-2-(1,1-dioxo-1lambda6-thiomorpholin-4-yl)indan-1-yloxy]benzenesulfonamide] | –
1000 to 10000 | COc1cccc(F)c1O[C@@H]1c2ccccc2C[C@H]1N1C[C@H]2CNC[C@H]2C1 (racemic) [Example 5, 2-[rac-trans-(1,2)-1-(2-fluoro-6-methoxyphenoxy)indan-2-yl]octahydropyrrolo[3,4-c]pyrrole] | –
– | N[C@H]1CCCN([C@H]2CCc3ccccc3[C@@H]2Oc2cc(F)cc(Cl)c2)C1 (racemic) [Example 162, (S)-1-[rac-trans-(1,2)-1-(3-chloro-5-fluorophenoxy)-1,2,3,4-tetrahydronaphthalen-2-yl]piperidin-3-ylamine] | inhibition at 10 µM [1]: 20 to 50%
1000 to 10000 | NC(=O)Nc1cccc(O[C@@H]2c3ccccc3C[C@H]2N2CCC(N)C2)c1 (mixture of isomers) [Example 234, {3-[rac-trans-(1,2)-2-(3-aminopyrrolidin-1-yl)indan-1-yloxy]phenyl}urea] | –
1000 to 10000 | CC(=O)Nc1cccc(O[C@H]2c3c(Cl)cccc3C[C@@H]2N2CCCC2)c1 (racemic) [Example 662, N-[3-(rac-trans-(1,2)-7-chloro-2-pyrrolidin-1-ylindan-1-yloxy)phenyl]acetamide] | –
1000 to 10000 | c1cc(O[C@@H]2c3ccccc3C[C@H]2N2C[C@H]3CNC[C@H]3C2)cc(N2CCNCC2)c1 (racemic) [Example 13, 2-[rac-trans-(1,2)-1-(3-piperazin-1-ylphenoxy)indan-2-yl]octahydropyrrolo[3,4-c]pyrrole] | –
< 1000 | N#Cc1ccc(O[C@H]2c3cc(Cl)cc(Cl)c3C[C@@H]2N2CCC[C@@H](N)C2)c(F)c1 [Example 479, 4-[(1S,2S)-2-((R)-3-aminopiperidin-1-yl)-4,6-dichloroindan-1-yloxy]-3-fluorobenzonitrile] | –
< 1000 | N#Cc1ccc(O[C@H]2c3ccccc3CC[C@@H]2N2CCC[C@@H](N)C2)cc1 (racemic) [Example 516, 4-[rac-trans-(1,2)-2-((R)-3-aminopiperidin-1-yl)-1,2,3,4-tetrahydronaphthalen-1-yloxy]benzonitrile] | –
1000 to 10000 | O=C1CNC(=O)N1c1ccc(Cl)c(O[C@H]2c3cc(Cl)cc(F)c3C[C@@H]2N2CC[C@@H](O)C2)c1 [Example 438, 3-{4-chloro-3-[(1S,2S)-6-chloro-4-fluoro-2-((R)-3-hydroxypyrrolidin-1-yl)indan-1-yloxy]phenyl}imidazolidine-2,4-dione] | –
1000 to 10000 | c1cc(CN2CCCCC2)cc(O[C@@H]2c3ccccc3C[C@H]2N2C[C@H]3CNC[C@H]3C2)c1 (racemic) [Example 14, 2-[rac-trans-(1,2)-1-(3-piperidin-1-ylmethylphenoxy)indan-2-yl]octahydropyrrolo[3,4-c]pyrrole] | –
